{"source": "patent US8846719B2", "about": "“Isoxazolo-pyridine derivatives” (Roche Palo Alto LLC, priority 2007, dated 2014)", "target": "human GABA A receptor α5β3γ2 (Homo sapiens (Human), UniProt P18507+P31644)", "test": "[3H]flumazenil competition binding assay, human GABA A α5β3γ2 receptors expressed in HEK293 cells", "conditions": "human receptor; displacement of [3H]flumazenil (0.5 nM); means of two determinations; read-out: hKi GABAAa5", "experimental": "The affinity of compounds at GABA A receptor subtypes was measured by competition for [3H]flumazenil (85 Ci/mmol; Roche) binding to HEK293 cells expressing rat (stably transfected) or human (transiently transfected) receptors of composition α1β3γ2, α2β3γ2, α3β3γ2 and α5β3γ2.\nCell pellets were suspended in Krebs-tris buffer (4.8 mM KCl, 1.2 mM CaCl2, 1.2 mM MgCl2, 120 mM NaCl, 15 mM Tris; pH 7.5; binding assay buffer), homogenized by polytron for ca. 20 sec on ice and centrifuged for 60 min at 4° C. (50000 g; Sorvall, rotor: SM24=20000 rpm). The cell pellets were resuspended in Krebs-tris buffer and homogenized by polytron for ca. 15 sec on ice. Protein was measured (Bradford method, Bio-Rad) and aliquots of 1 mL were prepared and stored at −80° C.\nAssays were incubated to equilibrium for 1 hour at 4° C. and harvested onto GF/C uni-filters (Packard) by filtration using a Packard harvester and washing with ice-cold wash buffer (50 mM Tris; pH 7.5). After drying, filter-retained radioactivity was detected by liquid scintillation counting. Ki values were calculated using Excel-Fit (Microsoft) and are the means of two determinations.", "note": "pKi: −log10 of the molar value."}
{"smiles": "Cc1onc(-c2ccccc2)c1COc1ccc(C(=O)NC[C@@H](C)O)cn1", "note": "(racemic) [Example 14, (R,S)—N-(2-Hydroxy-propyl)-6-(5-methyl-3-phenyl-isoxazol-4-ylmethoxy)-nicotinamide]", "values": [{"measurement": "pKi", "result": 8.60}]}
{"smiles": "Cc1onc(-c2ccccc2)c1COc1ccc(C(=O)N[C@@H]2CCOC(C)(C)C2)cn1", "note": "(racemic) [Example 32, (R,S)—N-(2,2-Dimethyl-tetrahydro-pyran-4-yl)-6-(5-methyl-3-phenyl-isoxazol-4-ylmethoxy)-nicotinamide]", "values": [{"measurement": "pKi", "result": 8.10}]}
{"smiles": "Cc1onc(-c2ccccc2)c1COc1ccc(C(=O)N[C@H]2CCCC[C@H]2O)cn1", "note": "(racemic) [Example 199, N-((1S,2R) and (1R,2S)-2-Hydroxy-cyclohexyl)-6-(5-methyl-3-phenyl-isoxazol-4-ylmethoxy)-nicotinamide]", "values": [{"measurement": "pKi", "result": 8.55}]}
{"smiles": "Cc1onc(-c2ccccc2)c1COc1ccc(C(=O)N[C@@H]2CCCC[C@@H]2O)cn1", "note": "(single isomer, unassigned) [Example 203, N-((1R,2S)-2-Hydroxy-cyclohexyl)-6-(5-methyl-3-phenyl-isoxazol-4-ylmethoxy)-nicotinamide or N-((1S,2R)-2-Hydroxy-cyclohexyl)-6-(5-methyl-3-phenyl-isoxazol-4-ylmethoxy)-nicotinamide]", "values": [{"measurement": "pKi", "result": 8.32}]}
{"smiles": "Cc1onc(-c2ccccc2)c1COc1ccc(C(=O)N[C@H]2CCCC[C@H]2O)cn1", "note": "(single isomer, unassigned) [Example 204, N-((1S,2R)-2-Hydroxy-cyclohexyl)-6-(5-methyl-3-phenyl-isoxazol-4-ylmethoxy)-nicotinamide or N-((1R,2S)-2-Hydroxy-cyclohexyl)-6-(5-methyl-3-phenyl-isoxazol-4-ylmethoxy)-nicotinamide]", "values": [{"measurement": "pKi", "result": 8.36}]}
{"smiles": "Cc1onc(-c2ccccc2)c1COc1ccc(C(=O)N[C@@H]2CCC[C@@H]2O)cn1", "note": "(single isomer, unassigned) [Example 210, N-((1R,2S)-2-Hydroxy-cyclopentyl)-6-(5-methyl-3-phenyl-isoxazol-4-ylmethoxy)-nicotinamide or N-((1S,2R)-2-hydroxy-cyclopentyl)-6-(5-methyl-3-phenyl-isoxazol-4-ylmethoxy)-nicotinamide]", "values": [{"measurement": "pKi", "result": 8.30}]}
{"smiles": "Cc1onc(-c2ccccc2)c1COc1ccc(C(=O)N[C@H]2CCC[C@H]2O)cn1", "note": "(single isomer, unassigned) [Example 211, N-((1S,2R)-2-Hydroxy-cyclopentyl)-6-(5-methyl-3-phenyl-isoxazol-4-ylmethoxy)-nicotinamide or N-((1R,2S)-2-hydroxy-cyclopentyl)-6-(5-methyl-3-phenyl-isoxazol-4-ylmethoxy)-nicotinamide]", "values": [{"measurement": "pKi", "result": 8.57}]}
{"smiles": "Cc1onc(-c2ccccc2)c1COc1ccc(C(=O)N[C@H]2CCC[C@@H]2O)cn1", "note": "(single isomer, unassigned) [Example 212, N-((1S,2S)-2-Hydroxy-cyclopentyl)-6-(5-methyl-3-phenyl-isoxazol-4-ylmethoxy)-nicotinamide or N-((1R,2R)-2-hydroxy-cyclopentyl)-6-(5-methyl-3-phenyl-isoxazol-4-ylmethoxy)-nicotinamide]", "values": [{"measurement": "pKi", "result": 8.70}]}
{"smiles": "Cc1onc(-c2ccccc2)c1COc1ccc(C(=O)N[C@@H]2CCC[C@H]2O)cn1", "note": "(single isomer, unassigned) [Example 213, N-((1R,2R)-2-Hydroxy-cyclopentyl)-6-(5-methyl-3-phenyl-isoxazol-4-ylmethoxy)-nicotinamide or N-((1S,2S)-2-hydroxy-cyclopentyl)-6-(5-methyl-3-phenyl-isoxazol-4-ylmethoxy)-nicotinamide]", "values": [{"measurement": "pKi", "result": 8.80}]}
{"smiles": "Cc1onc(-c2ccc(Cl)cc2)c1COc1ccc(C(=O)N[C@@H]2CCC[C@H]2O)cn1", "note": "(single isomer, unassigned) [Example 259, 6-[3-(4-Chloro-phenyl)-5-methyl-isoxazol-4-ylmethoxy]-N-((1R,2R)-2-hydroxy-cyclopentyl)-nicotinamide or 6-[3-(4-chloro-phenyl)-5-methyl-isoxazol-4-ylmethoxy]-N-((1S,2S)-2-hydroxy-cyclopentyl)-nicotinamide]", "values": [{"measurement": "pKi", "result": 9.15}]}
{"smiles": "Cc1onc(-c2ccc(Cl)cc2)c1COc1ccc(C(=O)N[C@H]2CCC[C@@H]2O)cn1", "note": "(single isomer, unassigned) [Example 260, 6-[3-(4-Chloro-phenyl)-5-methyl-isoxazol-4-ylmethoxy]-N-((1S,2S)-2-hydroxy-cyclopentyl)-nicotinamide or 6-[3-(4-chloro-phenyl)-5-methyl-isoxazol-4-ylmethoxy]-N-((1R,2R)-2-hydroxy-cyclopentyl)-nicotinamide]", "values": [{"measurement": "pKi", "result": 9.30}]}
{"smiles": "O=C(N[C@@H]1CCC[C@H]1O)c1ccc(OCc2conc2-c2ccc(F)cc2)nc1", "note": "(single isomer, unassigned) [Example 332, 6-[3-(4-Fluoro-phenyl)-isoxazol-4-ylmethoxy]-N-((1R,2R)-2-hydroxy-cyclopentyl)-nicotinamide or 6-[3-(4-fluoro-phenyl)-isoxazol-4-ylmethoxy]-N-((1S,2S)-2-hydroxy-cyclopentyl)-nicotinamide]", "values": [{"measurement": "pKi", "result": 7.65}]}
{"smiles": "O=C(N[C@@H]1CCC[C@H]1O)c1ccc(OCc2conc2-c2ccc(F)cc2)nc1", "note": "(single isomer, unassigned) [Example 341, 6-[3-(4-Fluoro-phenyl)-isoxazol-4-ylmethoxy]-N-((1R,2R)-2-hydroxy-cydopentyl)-nicotinamide or 6-[3-(4-fluoro-phenyl)-isoxazol-4-ylmethoxy]-N-((1S,2S)-2-hydroxy-cydopentyl)-nicotinamide]", "values": [{"measurement": "pKi", "result": 7.53}]}
{"smiles": "Cc1onc(-c2ccccc2)c1COc1ccccn1", "note": "[Example 1, 2-(5-Methyl-3-phenyl-isoxazol-4-ylmethoxy)-pyridine]", "values": [{"measurement": "pKi", "result": 7.44}]}
{"smiles": "Cc1cccc(OCc2c(-c3ccccc3)noc2C)n1", "note": "[Example 2, 2-Methyl-6-(5-methyl-3-phenyl-isoxazol-4-ylmethoxy)-pyridine]", "values": [{"measurement": "pKi", "result": 8.51}]}
{"smiles": "Cc1onc(-c2ccccc2)c1COc1ccc(Br)cn1", "note": "[Example 3, 5-Bromo-2-(5-methyl-3-phenyl-isoxazol-4-ylmethoxy)-pyridine]", "values": [{"measurement": "pKi", "result": 7.51}]}
{"smiles": "Cc1onc(-c2ccccc2)c1COc1ccc(C(F)(F)F)cn1", "note": "[Example 4, 2-(5-Methyl-3-phenyl-isoxazol-4-ylmethoxy)-5-trifluoromethylpyridine]", "values": [{"measurement": "pKi", "result": 7.22}]}
{"smiles": "Cc1onc(-c2ccccc2)c1COc1ccc(C#N)cn1", "note": "[Example 5, 6-(5-Methyl-3-phenyl-isoxazol-4-ylmethoxy)-nicotinonitrile]", "values": [{"measurement": "pKi", "result": 7.88}]}
{"smiles": "Cc1onc(-c2ccccc2)c1COc1ccc([N+](=O)[O-])cn1", "note": "[Example 6, 2-(5-Methyl-3-phenyl-isoxazol-4-ylmethoxy)-5-nitro-pyridine]", "values": [{"measurement": "pKi", "result": 7.65}]}
{"smiles": "COC(=O)c1ccc(OCc2c(-c3ccccc3)noc2C)nc1", "note": "[Example 7, 6-(5-Methyl-3-phenyl-isoxazol-4-ylmethoxy)-nicotinic acid methyl ester]", "values": [{"measurement": "pKi", "result": 7.85}]}
{"smiles": "CNC(=O)c1ccc(OCc2c(-c3ccccc3)noc2C)nc1", "note": "[Example 8, N-Methyl-6-(5-methyl-3-phenyl-isoxazol-4-ylmethoxy)-nicotinamide]", "values": [{"measurement": "pKi", "result": 8.37}]}
{"smiles": "CCNC(=O)c1ccc(OCc2c(-c3ccccc3)noc2C)nc1", "note": "[Example 9, N-Ethyl-6-(5-methyl-3-phenyl-isoxazol-4-ylmethoxy)-nicotinamide]", "values": [{"measurement": "pKi", "result": 8.54}]}
{"smiles": "Cc1onc(-c2ccccc2)c1COc1ccc(C(=O)NCCF)cn1", "note": "[Example 10, N-(2-Fluoro-ethyl)-6-(5-methyl-3-phenyl-isoxazol-4-ylmethoxy)-nicotinamide]", "values": [{"measurement": "pKi", "result": 8.36}]}
{"smiles": "Cc1onc(-c2ccccc2)c1COc1ccc(C(=O)NCC(F)F)cn1", "note": "[Example 11, N-(2,2-Difluoro-ethyl)-6-(5-methyl-3-phenyl-isoxazol-4-ylmethoxy)-nicotinamide]", "values": [{"measurement": "pKi", "result": 8.70}]}
{"smiles": "Cc1onc(-c2ccccc2)c1COc1ccc(C(=O)NCC(F)(F)F)cn1", "note": "[Example 12, 6-(5-Methyl-3-phenyl-isoxazol-4-ylmethoxy)-N-(2,2,2-trifluoro-ethyl)-nicotinamide]", "values": [{"measurement": "pKi", "result": 8.66}]}
{"smiles": "Cc1onc(-c2ccccc2)c1COc1ccc(C(=O)NCCO)cn1", "note": "[Example 13, N-(2-Hydroxy-ethyl)-6-(5-methyl-3-phenyl-isoxazol-4-ylmethoxy)-nicotinamide]", "values": [{"measurement": "pKi", "result": 8.59}]}
{"smiles": "COCCCNC(=O)c1ccc(OCc2c(-c3ccccc3)noc2C)nc1", "note": "[Example 15, N-(3-Methoxy-propyl)-6-(5-methyl-3-phenyl-isoxazol-4-ylmethoxy)-nicotinamide]", "values": [{"measurement": "pKi", "result": 8.28}]}
{"smiles": "Cc1onc(-c2ccccc2)c1COc1ccc(C(=O)NCC2CC2)cn1", "note": "[Example 16, N-Cyclopropylmethyl-6-(5-methyl-3-phenyl-isoxazol-4-ylmethoxy)-nicotinamide]", "values": [{"measurement": "pKi", "result": 8.41}]}
{"smiles": "CCC(CC)CNC(=O)c1ccc(OCc2c(-c3ccccc3)noc2C)nc1", "note": "[Example 17, N-(2-Ethyl-butyl)-6-(5-methyl-3-phenyl-isoxazol-4-ylmethoxy)-nicotinamide]", "values": [{"measurement": "pKi", "result": 8.11}]}
{"smiles": "Cc1onc(-c2ccccc2)c1COc1ccc(C(=O)NC[C@H]2CC(=O)NO2)cn1", "note": "[Example 18]", "values": [{"measurement": "pKi", "result": 7.71}]}
{"smiles": "Cc1onc(-c2ccccc2)c1COc1ccc(C(=O)NCc2nc(C3CC3)no2)cn1", "note": "[Example 19, N-(3-Cyclopropyl-[1,2,4]oxadiazol-5-ylmethyl)-6-(5-methyl-3-phenyl-isoxazol-4-ylmethoxy)-nicotinamide]", "values": [{"measurement": "pKi", "result": 7.88}]}
{"smiles": "Cc1onc(-c2ccccc2)c1COc1ccc(C(=O)NCc2cc(C3CC3)[nH]n2)cn1", "note": "[Example 20, N-(5-Cyclopropyl-1H-pyrazol-3-ylmethyl)-6-(5-methyl-3-phenyl-isoxazol-4-ylmethoxy)-nicotinamide]", "values": [{"measurement": "pKi", "result": 7.67}]}
